Where two headings read alike, the source gives them in different places.
What was measured:
[1] = human, in vivo
Experimental: (§3) The starting dose for CLR457 was 5 mg QD, based on preclinical toxicology studies in accordance with ICH guidelines, and was administered at the same time each day ±2 h in a fasted state. Various doses were planned up to 300 mg QD until MTD determination.
(§4) PK parameters including area under the curve (AUC), maximum serum concentration (Cmax), and time taken to reach Cmax (Tmax) were calculated using non-compartmental methods in Phoenix WinNonlin. [20]
(§5) [21] […] The Pharmacokinetic analysis set included all patients who had at least one blood sample providing evaluable PK data.

[2] = test system: blood glucose and plasma insulin levels; experiment: Blood glucose and plasma insulin in tumor bearing nude rats; format: in vivo
Experimental: (§1) [13] […] [13] […] CLR457 antitumor activity was then evaluated as described previously. […] (Supplemental Methods).

p110δ = p110δ (Homo sapiens, UniProt O00329); experiment: In vitro PI3K biochemical assay, p110δ
[3] = First-in-human phase I study: plasma pharmacokinetics; conditions: for Racc, geometric mean (CV%) / V/F, geometric mean (CV%): cycle 1 day 15
Experimental: as §3, §4, §5

[4] = test system: blood glucose and plasma insulin levels; experiment: Blood glucose and plasma insulin in tumor bearing nude mice; format: in vivo
Experimental: as §1

p110γ = p110γ (Homo sapiens, UniProt P48736); experiment: In vitro PI3K biochemical assay, p110γ
Chain of p110γ (P48736 whole entry): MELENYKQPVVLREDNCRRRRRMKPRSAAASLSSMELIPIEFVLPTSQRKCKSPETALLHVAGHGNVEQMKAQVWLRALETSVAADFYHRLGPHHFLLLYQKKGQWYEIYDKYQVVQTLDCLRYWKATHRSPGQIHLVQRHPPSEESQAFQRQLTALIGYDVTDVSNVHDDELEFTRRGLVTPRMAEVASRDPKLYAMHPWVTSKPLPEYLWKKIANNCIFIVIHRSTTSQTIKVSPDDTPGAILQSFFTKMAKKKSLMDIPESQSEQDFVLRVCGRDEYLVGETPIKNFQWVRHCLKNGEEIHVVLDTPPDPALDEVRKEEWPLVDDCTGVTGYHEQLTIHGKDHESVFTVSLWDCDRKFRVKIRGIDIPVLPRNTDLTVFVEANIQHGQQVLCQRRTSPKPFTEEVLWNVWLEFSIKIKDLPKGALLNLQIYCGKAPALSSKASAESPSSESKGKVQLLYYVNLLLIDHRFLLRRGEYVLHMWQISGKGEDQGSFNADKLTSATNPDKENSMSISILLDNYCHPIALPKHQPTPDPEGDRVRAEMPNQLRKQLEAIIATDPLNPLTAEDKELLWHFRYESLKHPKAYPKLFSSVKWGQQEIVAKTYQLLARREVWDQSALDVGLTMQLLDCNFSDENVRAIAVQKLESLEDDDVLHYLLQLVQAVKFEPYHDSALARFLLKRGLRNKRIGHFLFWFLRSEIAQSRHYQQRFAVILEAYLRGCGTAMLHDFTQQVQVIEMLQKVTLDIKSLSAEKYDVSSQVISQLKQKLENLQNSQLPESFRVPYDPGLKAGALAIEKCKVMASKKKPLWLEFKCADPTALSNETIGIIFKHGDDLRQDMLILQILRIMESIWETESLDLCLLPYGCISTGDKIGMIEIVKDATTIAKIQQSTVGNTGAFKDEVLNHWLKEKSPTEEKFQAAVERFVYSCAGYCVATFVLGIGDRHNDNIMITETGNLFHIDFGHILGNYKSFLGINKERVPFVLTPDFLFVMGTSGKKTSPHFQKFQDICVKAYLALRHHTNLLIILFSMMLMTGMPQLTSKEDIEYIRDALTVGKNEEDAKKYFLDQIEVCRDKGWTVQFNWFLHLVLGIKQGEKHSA

[5] = test system: HBRX2524 human primary breast tumor; experiment: HBRX2524 patient-derived breast tumor xenograft in nude mice; format: in vivo
Experimental: as §1
(§2) The significant level was set at p < 0.05.

Rat1-myr-p110δ tumors = experiment: Rat1-myr-p110δ tumor xenograft in nude mice; format: in vivo
Experimental: as §1, §2

[6] = test system: advanced solid tumors with PI3K pathway activation; experiment: First-in-human phase I study: efficacy (RECIST v1.1); format: in vivo; conditions: 5 mg
Experimental: Efficacy assessments including overall response rate (ORR) and disease control rate (DCR) were analyzed as per RECIST v1.1 by local investigator interpretation based on interval imaging every 2 cycles.

[7] = at the dose necessary for tumor regression

Chain of p110δ (O00329 2-1044 limits assumed): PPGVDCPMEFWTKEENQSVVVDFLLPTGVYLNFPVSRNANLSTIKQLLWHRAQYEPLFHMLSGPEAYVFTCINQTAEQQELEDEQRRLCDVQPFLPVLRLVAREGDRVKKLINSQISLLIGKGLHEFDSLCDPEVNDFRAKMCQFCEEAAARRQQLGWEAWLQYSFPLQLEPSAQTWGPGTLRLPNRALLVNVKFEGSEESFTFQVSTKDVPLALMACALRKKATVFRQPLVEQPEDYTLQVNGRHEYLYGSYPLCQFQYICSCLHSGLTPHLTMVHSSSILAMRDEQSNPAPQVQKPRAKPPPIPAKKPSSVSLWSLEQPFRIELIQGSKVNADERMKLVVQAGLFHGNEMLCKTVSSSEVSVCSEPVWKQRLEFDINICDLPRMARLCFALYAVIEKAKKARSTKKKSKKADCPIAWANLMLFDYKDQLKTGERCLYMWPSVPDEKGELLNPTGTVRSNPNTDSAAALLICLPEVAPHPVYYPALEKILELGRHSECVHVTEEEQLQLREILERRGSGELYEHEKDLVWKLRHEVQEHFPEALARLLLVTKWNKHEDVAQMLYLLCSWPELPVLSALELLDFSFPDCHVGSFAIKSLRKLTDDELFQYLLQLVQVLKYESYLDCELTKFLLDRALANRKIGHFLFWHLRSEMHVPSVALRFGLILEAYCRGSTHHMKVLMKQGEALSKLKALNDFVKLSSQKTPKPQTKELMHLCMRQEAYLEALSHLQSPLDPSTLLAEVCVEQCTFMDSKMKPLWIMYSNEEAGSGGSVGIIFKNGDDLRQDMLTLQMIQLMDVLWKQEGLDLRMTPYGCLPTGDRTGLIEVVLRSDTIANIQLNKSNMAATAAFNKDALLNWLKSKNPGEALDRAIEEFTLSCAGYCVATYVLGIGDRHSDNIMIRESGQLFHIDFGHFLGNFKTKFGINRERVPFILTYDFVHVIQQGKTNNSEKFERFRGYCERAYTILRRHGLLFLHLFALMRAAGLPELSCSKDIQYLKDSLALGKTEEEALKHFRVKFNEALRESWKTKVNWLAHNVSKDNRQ
Chain of p110δ (P27986 461-568 partner limits assumed): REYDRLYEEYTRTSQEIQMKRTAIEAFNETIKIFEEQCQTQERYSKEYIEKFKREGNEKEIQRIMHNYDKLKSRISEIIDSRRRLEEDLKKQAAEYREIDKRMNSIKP

## C[C@H]1OC(=O)N(c2cc(-c3cnc(N)nc3C(F)(F)F)nc(N3CCOCC3)n2)[C@H]1CO [CLR457]
[1]
  Geometric mean CL/F: 2610 to 4742 mL/h
  Median Tmax: 1 to 3.5 h
[1]; 5 mg
  AUC(0-24h), geometric mean (CV%): 1182 (40.8) hr*ng/mL
  AUCtau, geometric mean (CV%): 1665 (81.7) hr*ng/mL
  CL/F, geometric mean (CV%): 3003 (81.7) mL/h
  Cmax, geometric mean (CV%): 100 (0.40) ng/mL
  T1/2, acc, median (range): 13.9 (7.58–20.20) hr
  Tmax, median (range): 2.50 (1.00–4.00) hr
[1]; 10 mg
  AUC(0-24h), geometric mean (CV%): 2241 (7.5) hr*ng/mL
  AUCtau, geometric mean (CV%): 2846 (25.5) hr*ng/mL
  CL/F, geometric mean (CV%): 3514 (25.5) mL/h
  Cmax, geometric mean (CV%): 230 (24.5) ng/mL
  T1/2, acc, median (range): 7.92 (6.53–18.40) hr
  Tmax, median (range): 1.00 (0.92–2.00) hr
[1]; 20 mg
  AUC(0-24h), geometric mean (CV%): 6718 (41.6) hr*ng/mL
  AUCtau, geometric mean (CV%): 7662 (45.3) hr*ng/mL
  CL/F, geometric mean (CV%): 2610 (45.3) mL/h
  Cmax, geometric mean (CV%): 475 (24.2) ng/mL
  T1/2, acc, median (range): 11.8 (5.71–15.34) hr
  Tmax, median (range): 2.51 (2.05–3.95) hr
[1]; 40 mg
  AUC(0-24h), geometric mean (CV%): 9567 (34.9) hr*ng/mL
  AUCtau, geometric mean (CV%): 11,727 (39.0) hr*ng/mL
  CL/F, geometric mean (CV%): 3411 (39.0) mL/h
  Cmax, geometric mean (CV%): 687 (47.2) ng/mL
  T1/2, acc, median (range): 11.0 (4.13–27.90) hr
  Tmax, median (range): 2.07 (0.98–6.00) hr
[1]; 70 mg
  AUC(0-24h), geometric mean (CV%): 10,537 (47.6) hr*ng/mL
  AUCtau, geometric mean (CV%): 14,762 (37.1) hr*ng/mL
  CL/F, geometric mean (CV%): 4742 (37.1) mL/h
  Cmax, geometric mean (CV%): 732 (44.8) ng/mL
  T1/2, acc, median (range): 16.8 (11.9–23.70) hr
  Tmax, median (range): 3.50 (0.72–24.1) hr
[1]; 100 mg
  AUC(0-24h), geometric mean (CV%): 18,390 (25.8) hr*ng/mL
  AUCtau, geometric mean (CV%): 23,754 (40.4) hr*ng/mL
  CL/F, geometric mean (CV%): 4210 (40.4) mL/h
  Cmax, geometric mean (CV%): 1449 (28.7) ng/mL
  Exposure at steady state (AUC0-tau on Day 15): 23,754 ng*h/mL
  T1/2, acc, median (range): 12.1 (5.04–27.0) hr
  Tmax, median (range): 2.93 (0.50–7.53) hr
[2]
  Plasma insulin levels: increased proportionally to CLR457 concentration
[2]; [7]
  Blood glucose levels: moderately perturbed
p110δ
  IC50: 39 ± 10 nM
[3]; 5 mg, n 2
  Racc, geometric mean (CV%): 1.4 (33.4)
  V/F, geometric mean (CV%): 43,139 (6.6) mL
[3]; 10 mg, n 3
  Racc, geometric mean (CV%): 1.3 (24.3)
  V/F, geometric mean (CV%): 66,520 (11.5) mL
[3]; 20 mg, n 4
  Racc, geometric mean (CV%): 1.1 (28.4)
  V/F, geometric mean (CV%): 55,193 (32.1) mL
[3]; 40 mg, n 5
  Racc, geometric mean (CV%): 1.3 (38.4)
  V/F, geometric mean (CV%): 115,503 (109.2) mL
[3]; 70 mg, n 4
  V/F, geometric mean (CV%): 72,822 (49.9) mL
[3]; 70 mg, n 5
  Racc, geometric mean (CV%): 1.4 (29.5)
[3]; 100 mg, n 4
  Racc, geometric mean (CV%): 1.3 (37.0)
  V/F, geometric mean (CV%): 67,311 (38.2) mL
[3]; repeated daily dosing
  Steady state: reached by C1D15
[4]
  Plasma insulin levels: increased proportionally to CLR457 concentration
[4]; [7]
  Blood glucose levels: moderately perturbed
p110γ
  IC50: 230 ± 31 nM
[5]
  Dose at which tumor regression occurred: 20 mg/kg BID
Rat1-myr-p110δ tumors
  Dose at which tumor regression occurred: 20 mg/kg BID
[6]; FAS N = 2
  Treatment discontinuation, primary reason progressive disease: 2 (100) n (%)
[6]; N = 2
  Best overall response: Complete response (CR): 0 n (%)
  Best overall response: Non-CR/non-PD: 0 n (%)
  Best overall response: Partial response (PR): 0 n (%)
